Structures are written as SMILES.

8 molecules from ChEMBL document CHEMBL1148964, “New furofuran and butyrolactone lignans with antioxidant activity from the stem bark of Styrax japonica” (J Nat Prod, 2004) can be followed below.

This test concerns Radical scavenging activity. Nature of the test: Antioxidant activity assessed as DPPH radical scavenging activity after 30 mins. Format: functional. Background: The DPPH test is a chemical assay of radical scavenging.
What is called IC50 is the concentration at which inhibition is half-maximal. For `Cc1c(C)c2c(c(C)c1O)CC[C@@](C)(CCC[C@H](C)CCC[C@H](C)CCCC(C)C)O2` [ALPHA-TOCOPHEROL], the IC50 came out at 20.1 µM. With `COc1cc([C@@H]2OC[C@@H]3[C@H]2C(=O)O[C@H]3c2ccc3c(c2)OCO3)ccc1O[C@@H]1O[C@H](CO)[C@@H](O)[C@H](O)[C@H]1O` [STYRAXLIGNOLIDE B] the figure was above 500 µM. With `COc1ccc(C[C@@H]2C(=O)OC[C@H]2Cc2ccc(O[C@@H]3O[C@H](CO)[C@@H](O)[C@H](O)[C@H]3O)c(OC)c2)cc1O` [STYRAXLIGNOLIDE C] the figure was 380 µM. With `COc1cc(C[C@@H]2C(=O)OC[C@H]2Cc2ccc(O[C@@H]3O[C@H](CO)[C@@H](O)[C@H](O)[C@H]3O)c(OC)c2)ccc1O` [STYRAXLIGNOLIDE D] the figure was 278 µM; with `COc1cc(C[C@@H]2COC(=O)[C@H]2Cc2ccc(O[C@@H]3O[C@H](CO)[C@@H](O)[C@H](O)[C@H]3O)c(OC)c2)ccc1O` [STYRAXLIGNOLIDE E], 194 µM; with `COc1ccc(C[C@@H]2C(=O)OC[C@H]2Cc2ccc(O[C@@H]3O[C@H](CO)[C@@H](O)[C@H](O)[C@H]3O)c(OC)c2)cc1OC` [STYRAXLIGNOLIDE F], above 500 µM. On to `COc1cc(/C=C/CO)cc(OC)c1O[C@@H]1O[C@H](CO)[C@@H](O)[C@H](O)[C@H]1O` [SYRINGIN], for which the IC50 is above 500 µM. With `CC1(C)CC[C@]2(C)CC=C3[C@]4(C)CC[C@H]5C(C)(C)[C@@H](O)CC[C@]5(C)[C@H]4CC[C@@]3(C)[C@@H]2C1` [TARAXEROL] the figure was above 500 µM.
